Source: ChEMBL document CHEMBL1201862, “PubChem BioAssay data set” (2004)
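1) Cells in 96-well plates. 2) Compound, 48 h, 5 concentrations. 3) Linear interpolation between surrounding doses. 4) Unreached endpoint = highest concentration. At the GI50, growth is halved.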 The source made the active and inactive calls. No stated cut-off is given here; in the data, active = GI50 up to about 1.1 µM and inactive = higher.

Key:
Assay in all cases: NCI tumour cell line growth inhibition, 48 h
TK-10 = system: TK-10
HCT-116 = system: HCT-116
OVCAR-8 = system: OVCAR-8
CCRF-CEM = system: CCRF-CEM
UACC-62 = system: UACC-62
Malme-3M = system: Malme-3M
M19-MEL = system: M19-MEL
HOP-92 = system: HOP-92
DMS-114 = system: DMS-114
SR = system: SR
CAKI-1 = system: CAKI-1
786-0 = system: 786-0
ACHN = system: ACHN
DLD-1 = system: DLD-1
LXFL 529 = system: LXFL 529
SW-620 = system: SW-620
SF-268 = system: SF-268
UO-31 = system: UO-31
RXF 393 = system: RXF 393
HL-60 = system: HL-60
LOX IMVI = system: LOX IMVI
XF498 = system: XF498
OVCAR-5 = system: OVCAR-5
IGROV-1 = system: IGROV-1
SNB-75 = system: SNB-75
HT-29 = system: HT-29
K562 = system: K562
MOLT-4 = system: MOLT-4
SN12C = system: SN12C
SF-295 = system: SF-295
OVCAR-3 = system: OVCAR-3
RXF 631 = system: RXF 631
UACC-257 = system: UACC-257
KM12 = system: KM12
SK-MEL-28 = system: SK-MEL-28
OVCAR-4 = system: OVCAR-4
NCI-H522 = system: NCI-H522
U-251 = system: U-251
SF-539 = system: SF-539
SK-MEL-5 = system: SK-MEL-5
DMS-273 = system: DMS-273
A549 = system: A549
COLO 205 = system: COLO 205
HCC 2998 = system: HCC 2998
NCI-H460 = system: NCI-H460
SNB-78 = system: SNB-78
HOP-62 = system: HOP-62
HOP-18 = system: HOP-18
M14 = system: M14
SNB-19 = system: SNB-19
NCI-H23 = system: NCI-H23
EKVX = system: EKVX
A498 = system: A498
SK-MEL-2 = system: SK-MEL-2
NCI-H226 = system: NCI-H226
SK-OV-3 = system: SK-OV-3
RPMI-8226 = system: RPMI-8226
KM-20L2 = system: KM-20L2
HCT-15 = system: HCT-15

Measured: GI50

COc1ccc2c(c1)CCc1c(C(C)=O)c3ccccc3n1C2
inactive: TK-10 60.4 µM | HCT-116 25.8 µM | OVCAR-8 28.1 µM | CCRF-CEM 63.4 µM | UACC-62 25.6 µM | Malme-3M 18.1 µM | M19-MEL 57.5 µM | HOP-92 20.3 µM | DMS-114 31.7 µM | SR 28.7 µM | CAKI-1 24 µM | 786-0 31.6 µM | ACHN 12 µM | DLD-1 42.4 µM | LXFL 529 12.1 µM | SW-620 > 100 µM | SF-268 29.1 µM | UO-31 11.7 µM | RXF 393 22.8 µM | HL-60 11.5 µM | LOX IMVI 41 µM | XF498 12.9 µM | OVCAR-5 > 100 µM | IGROV-1 19.3 µM | SNB-75 33.4 µM | HT-29 > 100 µM | K562 6.37 µM | MOLT-4 13.4 µM | SN12C 49.5 µM | SF-295 12.7 µM | OVCAR-3 12.1 µM | RXF 631 42.1 µM | UACC-257 15.3 µM | KM12 > 100 µM | SK-MEL-28 60.3 µM | OVCAR-4 28.3 µM | NCI-H522 19.9 µM | U-251 20.2 µM | SF-539 20.7 µM | SK-MEL-5 6.19 µM | DMS-273 33 µM | A549 11.2 µM | COLO 205 > 100 µM | HCC 2998 33.7 µM | NCI-H460 47.3 µM | SNB-78 52 µM | HOP-62 26.4 µM | HOP-18 58.6 µM | M14 94.6 µM | SNB-19 38.5 µM | NCI-H23 16.5 µM

O=C(/C=C/c1ccccc1O)C(c1ccccc1)c1ccccc1
inactive: TK-10 > 100 µM | EKVX > 100 µM | HCT-116 > 100 µM | OVCAR-8 > 100 µM | CCRF-CEM 60.8 µM | UACC-62 > 100 µM | Malme-3M > 100 µM | M19-MEL > 100 µM | HOP-92 > 100 µM | DMS-114 63.2 µM | SR > 100 µM | A498 > 100 µM | CAKI-1 > 100 µM | 786-0 51.1 µM | ACHN > 100 µM | DLD-1 > 100 µM | LXFL 529 > 100 µM | SK-MEL-2 > 100 µM | SW-620 13.1 µM | NCI-H226 > 100 µM | SF-268 > 100 µM | UO-31 > 100 µM | RXF 393 > 100 µM | LOX IMVI 24.1 µM | XF498 > 100 µM | OVCAR-5 > 100 µM | IGROV-1 > 100 µM | SNB-75 20.1 µM | HT-29 > 100 µM | K562 78.5 µM | MOLT-4 > 100 µM | SN12C > 100 µM | SF-295 > 100 µM | OVCAR-3 > 100 µM | RXF 631 > 100 µM | SK-OV-3 > 100 µM | UACC-257 > 100 µM | KM12 98.9 µM | SK-MEL-28 > 100 µM | OVCAR-4 48.5 µM | NCI-H522 65.6 µM | RPMI-8226 72.6 µM | U-251 > 100 µM | SF-539 > 100 µM | SK-MEL-5 > 100 µM | DMS-273 > 100 µM | A549 > 100 µM | COLO 205 39.3 µM | HCC 2998 > 100 µM | NCI-H460 > 100 µM | SNB-78 > 100 µM | HOP-62 > 100 µM | HOP-18 > 100 µM | KM-20L2 > 100 µM | M14 > 100 µM | SNB-19 > 100 µM | NCI-H23 > 100 µM
> 100 µM: HCT-15

CC(=O)n1cc(CC(C)O)c(=O)[nH]c1=O (stereo not drawn)
> 100 µM: HCT-15
inactive: TK-10 > 100 µM | EKVX > 100 µM | HCT-116 > 100 µM | OVCAR-8 > 100 µM | UACC-62 > 100 µM | M19-MEL > 100 µM | DMS-114 > 100 µM | SR > 100 µM | A498 > 100 µM | CAKI-1 > 100 µM | 786-0 > 100 µM | ACHN > 100 µM | DLD-1 > 100 µM | LXFL 529 > 100 µM | SK-MEL-2 > 100 µM | SW-620 > 100 µM | NCI-H226 > 100 µM | SF-268 > 100 µM | UO-31 > 100 µM | HL-60 > 100 µM | LOX IMVI > 100 µM | XF498 > 100 µM | OVCAR-5 > 100 µM | IGROV-1 > 100 µM | SNB-75 > 100 µM | HT-29 > 100 µM | K562 > 100 µM | MOLT-4 > 100 µM | SN12C 17.1 µM | SF-295 > 100 µM | OVCAR-3 > 100 µM | RXF 631 > 100 µM | SK-OV-3 > 100 µM | UACC-257 > 100 µM | KM12 > 100 µM | SK-MEL-28 > 100 µM | OVCAR-4 > 100 µM | NCI-H522 > 100 µM | RPMI-8226 > 100 µM | U-251 > 100 µM | SF-539 > 100 µM | SK-MEL-5 > 100 µM | DMS-273 > 100 µM | A549 > 100 µM | COLO 205 > 100 µM | NCI-H460 > 100 µM | SNB-78 > 100 µM | HOP-62 > 100 µM | HOP-18 > 100 µM | KM-20L2 > 100 µM | M14 > 100 µM | SNB-19 > 100 µM | NCI-H23 > 100 µM
